# Measurements from PMC12951562, “SH2scan: Mapping SH2 Domain-Ligand Binding Selectivity for Inhibitors and Degraders” (Journal of Medicinal Chemistry, 2026).
# Read-outs that look alike come from different tables or passages of the source. Non-standard residues stand in square brackets, D forms with d. Residues, ends and D or L forms follow the SMILES beside them. *: point of attachment. pY = N[C@@H](Cc1ccc(OP(=O)(O)O)cc1)C(=O)O; Caffeoyl = O=C(/C=C/c1ccc(O)c(O)c1)*
# What was measured:
# Test in all cases: biochemical
# Type in all cases: binding
# HSH2D = target: T1, HSH2D (Homo sapiens, UniProt Q96JZ2); details: for percent of DMSO vehicle control at 10 µM / remaining activity at 10 µM: read-out: percent of DMSO vehicle control
# T1 construct: the DNA-tagged SH2 domain concentrations used in this study were <0.1 nM; made in house; host or cells: HEK293 (transient transfection, unpurified extract)
# T1 sequence (Q96JZ2 34-125 limits assumed): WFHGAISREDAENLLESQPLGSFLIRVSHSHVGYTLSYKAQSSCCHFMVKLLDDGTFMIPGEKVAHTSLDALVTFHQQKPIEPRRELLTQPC
# SHB = target: T2, SHB (Homo sapiens, UniProt Q15464); details: for remaining activity at 10 µM: read-out: percent of DMSO vehicle control
# T2 construct: made in house; host or cells: HEK293 (transient transfection), unpurified extract
# SHIP1 = target: T3, SHIP1 (Homo sapiens, UniProt Q92835); details: for percent of DMSO vehicle control: primary screen, 10 μM
# T3 construct: made in house; host or cells: HEK293 (transient transfection), unpurified extract
# T3 sequence (Q92835 1-1189): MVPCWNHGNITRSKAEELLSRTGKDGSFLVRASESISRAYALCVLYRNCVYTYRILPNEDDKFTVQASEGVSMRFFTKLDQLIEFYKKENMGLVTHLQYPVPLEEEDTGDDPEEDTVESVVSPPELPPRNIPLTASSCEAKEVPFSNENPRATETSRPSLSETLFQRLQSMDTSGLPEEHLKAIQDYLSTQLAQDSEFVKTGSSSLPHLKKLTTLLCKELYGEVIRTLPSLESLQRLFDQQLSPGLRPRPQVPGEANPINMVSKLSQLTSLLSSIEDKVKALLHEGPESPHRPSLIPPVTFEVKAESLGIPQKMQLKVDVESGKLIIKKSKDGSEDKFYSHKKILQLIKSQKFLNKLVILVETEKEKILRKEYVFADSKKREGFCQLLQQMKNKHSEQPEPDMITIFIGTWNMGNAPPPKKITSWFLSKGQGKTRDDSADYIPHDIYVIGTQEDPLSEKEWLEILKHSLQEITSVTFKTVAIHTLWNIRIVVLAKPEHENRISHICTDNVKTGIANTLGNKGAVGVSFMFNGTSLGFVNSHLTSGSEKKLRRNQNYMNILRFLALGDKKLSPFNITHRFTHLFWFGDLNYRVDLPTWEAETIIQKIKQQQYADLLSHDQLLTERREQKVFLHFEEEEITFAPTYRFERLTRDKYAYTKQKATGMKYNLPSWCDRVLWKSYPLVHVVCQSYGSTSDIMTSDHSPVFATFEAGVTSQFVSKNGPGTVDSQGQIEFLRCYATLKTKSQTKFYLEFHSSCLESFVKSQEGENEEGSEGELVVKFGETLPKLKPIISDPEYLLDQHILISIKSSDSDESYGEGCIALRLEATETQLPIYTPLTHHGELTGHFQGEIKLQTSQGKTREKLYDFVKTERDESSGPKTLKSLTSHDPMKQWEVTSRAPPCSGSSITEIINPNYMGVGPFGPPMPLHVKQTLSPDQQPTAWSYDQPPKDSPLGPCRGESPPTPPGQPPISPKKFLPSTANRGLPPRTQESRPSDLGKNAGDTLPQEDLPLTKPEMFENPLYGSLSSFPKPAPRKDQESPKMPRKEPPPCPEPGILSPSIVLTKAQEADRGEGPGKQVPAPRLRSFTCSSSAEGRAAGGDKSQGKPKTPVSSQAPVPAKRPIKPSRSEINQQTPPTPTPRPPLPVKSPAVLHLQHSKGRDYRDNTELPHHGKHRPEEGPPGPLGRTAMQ
# SOCS1 = target: T4, SOCS1 (Homo sapiens, UniProt O15524); details: for remaining activity at 10 µM: read-out: percent of DMSO vehicle control
# T4 construct: made in house; host or cells: HEK293 (transient transfection), unpurified extract
# T4 sequence (O15524 1-211): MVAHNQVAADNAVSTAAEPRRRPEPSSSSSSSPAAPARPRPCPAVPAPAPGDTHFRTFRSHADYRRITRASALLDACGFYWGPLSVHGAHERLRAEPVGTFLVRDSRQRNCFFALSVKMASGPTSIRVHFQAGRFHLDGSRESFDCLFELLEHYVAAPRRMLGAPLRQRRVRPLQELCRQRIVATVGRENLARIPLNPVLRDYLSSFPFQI
# VAV1 = target: T5, VAV1 (Homo sapiens, UniProt P15498); details: for percent of DMSO vehicle control at 10 µM / remaining activity at 10 µM: read-out: percent of DMSO vehicle control
# T5 construct: made in house; host or cells: HEK293 (transient transfection), unpurified extract
# T5 sequence (P15498 1-845): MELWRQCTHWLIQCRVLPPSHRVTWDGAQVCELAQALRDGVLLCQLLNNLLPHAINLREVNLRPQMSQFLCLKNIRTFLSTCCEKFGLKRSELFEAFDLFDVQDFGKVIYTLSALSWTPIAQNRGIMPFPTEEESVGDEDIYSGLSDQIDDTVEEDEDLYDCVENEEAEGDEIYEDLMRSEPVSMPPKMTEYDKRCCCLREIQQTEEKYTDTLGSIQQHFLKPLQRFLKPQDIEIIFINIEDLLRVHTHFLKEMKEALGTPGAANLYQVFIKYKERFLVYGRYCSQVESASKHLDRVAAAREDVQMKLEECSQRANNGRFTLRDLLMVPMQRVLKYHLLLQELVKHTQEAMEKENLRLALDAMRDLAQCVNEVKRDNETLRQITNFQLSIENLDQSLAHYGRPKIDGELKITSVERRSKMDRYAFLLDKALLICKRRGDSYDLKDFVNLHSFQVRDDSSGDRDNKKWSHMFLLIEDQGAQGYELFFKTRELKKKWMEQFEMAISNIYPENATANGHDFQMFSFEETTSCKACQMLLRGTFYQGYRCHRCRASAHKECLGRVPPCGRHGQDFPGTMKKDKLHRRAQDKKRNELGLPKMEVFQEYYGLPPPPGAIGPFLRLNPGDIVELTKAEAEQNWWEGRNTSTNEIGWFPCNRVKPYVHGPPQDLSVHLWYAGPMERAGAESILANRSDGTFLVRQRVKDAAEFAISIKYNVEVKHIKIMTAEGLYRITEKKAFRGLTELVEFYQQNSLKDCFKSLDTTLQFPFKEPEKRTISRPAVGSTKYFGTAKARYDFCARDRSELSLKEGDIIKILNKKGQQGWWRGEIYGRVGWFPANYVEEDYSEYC
# SH2B (SH2B1) = target: T6, SH2B (SH2B1) (Homo sapiens, UniProt Q9NRF2); details: for remaining activity at 10 µM: read-out: percent of DMSO vehicle control
# T6 construct: made in house; host or cells: HEK293 (transient transfection), unpurified extract
# PLCG2(SH2dom.N-term.) = target: T7, PLCG2(SH2dom.N-term.) (Homo sapiens, UniProt P16885); details: for remaining activity at 10 µM: read-out: percent of DMSO vehicle control
# T7 construct: SH2dom.N-term. denotes SH2 domain closest to N-terminus of protein; made in house; host or cells: HEK293 (transient transfection, unpurified extract)
# T7 sequence (P16885 532-635 limits assumed): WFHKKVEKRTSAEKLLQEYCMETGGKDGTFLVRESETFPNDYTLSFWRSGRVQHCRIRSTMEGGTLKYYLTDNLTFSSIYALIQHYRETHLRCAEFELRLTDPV
# T2 sequence (Q15464 whole entry): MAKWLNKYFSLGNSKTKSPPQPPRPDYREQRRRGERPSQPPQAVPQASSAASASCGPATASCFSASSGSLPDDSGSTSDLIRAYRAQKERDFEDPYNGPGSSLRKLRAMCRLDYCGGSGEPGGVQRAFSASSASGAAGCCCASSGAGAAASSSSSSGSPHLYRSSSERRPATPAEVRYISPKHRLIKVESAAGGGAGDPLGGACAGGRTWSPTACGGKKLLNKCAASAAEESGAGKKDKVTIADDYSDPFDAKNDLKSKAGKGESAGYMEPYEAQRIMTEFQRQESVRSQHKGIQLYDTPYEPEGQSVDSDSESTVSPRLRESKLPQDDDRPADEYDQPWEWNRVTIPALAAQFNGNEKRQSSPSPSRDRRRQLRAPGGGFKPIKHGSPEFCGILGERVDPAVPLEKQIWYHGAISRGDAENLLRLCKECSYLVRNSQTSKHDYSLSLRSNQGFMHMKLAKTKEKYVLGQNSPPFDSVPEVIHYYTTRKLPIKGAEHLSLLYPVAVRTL
SMILES,percent of DMSO vehicle control (SHIP1) [%],percent of DMSO vehicle control at 10 µM (HSH2D) [%],remaining activity at 10 µM (SHB) [%],remaining activity at 10 µM (SOCS1) [%],percent of DMSO vehicle control at 10 µM (VAV1) [%],remaining activity at 10 µM (SH2B (SH2B1)) [%],remaining activity at 10 µM (PLCG2(SH2dom.N-term.)) [%],"remaining activity at 10 µM (HSH2D; primary screen, 10 μM) [%]","remaining activity at 10 µM (SHB; primary screen, 10 μM) [%]","remaining activity at 10 µM (SOCS1; primary screen, 10 μM) [%]","remaining activity at 10 µM (VAV1; primary screen, 10 μM) [%]","remaining activity at 10 µM (SH2B (SH2B1); primary screen, 10 μM) [%]","remaining activity at 10 µM (PLCG2(SH2dom.N-term.); primary screen, 10 μM) [%]",also measured
CC[C@H](C)[C@H](NC(=O)[C@H](CCC(=O)O)NC(=O)[C@H](CCC(=O)O)NC(=O)[C@H](Cc1ccc(OP(=O)(O)O)cc1)NC(C)=O)C(=O)N[C@@H](CCC(=O)O)C(N)=O [Ac-pYEEIE-NH2] (Ac-[pY]EEIE-NH2),79.4±1.4,–,–,–,–,–,–,–,–,–,–,–,–,"percent of DMSO vehicle control (HSH2D; primary screen, 10 μM): 127.4%; percent of DMSO vehicle control (SHB; primary screen, 10 μM): 117.6%; percent of DMSO vehicle control (SOCS1; primary screen, 10 μM): 128.1%; percent of DMSO vehicle control (VAV1; primary screen, 10 μM): 87.2±8.1%; percent of DMSO vehicle control (SH2B (SH2B1); primary screen, 10 μM): 126.6%; percent of DMSO vehicle control (PLCG2(SH2dom.N-term.); primary screen, 10 μM): 92.3±3.3%"
CC(=O)N[C@@H](Cc1ccc(CP(=O)(O)O)cc1)C(=O)NC1(C(=O)N[C@@H](CC(N)=O)C(=O)NCCCc2c(O)ccc3ccccc23)CCCCC1 [CGP78850],77.7±20.9,8.1 ± 6.6,97.4 ± 9.4,129 ± 11.7,1.8 ± 0.4,125 ± 1.9,87.2 ± 19.7,–,–,–,–,–,–,Kd (HSH2D): 1600 ± 350 nM; Kd (VAV1): 260 nM
CC[C@H](C)[C@H](NC(=O)[C@H](CCC(=O)O)NC(=O)[C@H](CCC(=O)O)NC(=O)[C@H](Cc1ccc(OP(=O)(O)O)cc1)NC(=O)/C=C/c1ccc(O)c(O)c1)C(=O)N[C@@H](CCC(=O)O)C(=O)O [Caffeic acid-pYEEIE] (Caffeoyl-[pY]EEIE-OH),9.0±2.9,80.3 ± 18.6,1.8 ± 0.1,1.1 ± 0.1,1.6 ± 0.6,2.3 ± 0.4,1.2 ± 0.1,–,–,–,–,–,–,Kd (SHB): 1200 ± 530 nM; Kd (SHIP1): 5800 ± 1600 nM; Kd (SOCS1): 30 ± 6.5 nM; Kd (VAV1): 840 ± 530 nM; Kd (SH2B (SH2B1)): 910 ± 310 nM; Kd (PLCG2(SH2dom.N-term.)): 1070 ± 320 nM
O=C(CCl)Nc1cccc(CNC(=O)[C@H](Cc2ccc(OP(=O)(O)O)cc2)NC(=O)Cc2ccc(F)cc2)c1 [MN551],19.1,–,–,–,–,–,–,3 ± 0.2,102,38.1 ± 7.5,109,105,109,"Kd (HSH2D; dose-response, read-out: KD): 8700 nM; KD (SHIP1; dose-response): No Hit"
NC(=O)CC[C@H](NC(=O)[C@@H]1CC[C@@H]2CCN(C(=O)CCCCCC#Cc3cccc4c3CN(C3CCC(=O)NC3=O)C4=O)C[C@H](NC(=O)c3cc4cc(C(F)(F)P(=O)(O)O)ccc4[nH]3)C(=O)N21)C(=O)NC(c1ccccc1)c1ccccc1 (stereo partly shown) [SD-36],44.1±5.9,72.7 ± 14.5,87.7 ± 2.3,132 ± 8.8,116 ± 3,68.4 ± 0.4,73.8 ± 3.7,–,–,–,–,–,–,–
CC(=O)N1CC[C@H]2CC[C@@H](C(=O)N[C@@H](CCC(N)=O)C(=O)NC(c3ccccc3)c3ccccc3)N2C(=O)[C@@H](NC(=O)c2cc3cc(C(F)(F)P(=O)(O)O)ccc3[nH]2)C1 [SI-109],101.8,154,129,103,112,149,112,–,–,–,–,–,–,–
C/C(=C\C(=O)N[C@H](C(=O)N1CCC[C@H]1C(=O)N(c1ccccc1)c1ccc(I)cc1)C(C)(C)C)c1ccc(OP(=O)(O)O)cc1 [STAT6-IN-1],4.4±1.3,–,–,–,–,–,–,14.6 ± 0.1,28.7 ± 0.4,98.5 ± 3.5,55.3 ± 2.6,22.6 ± 6.8,20.7 ± 29.3,"KD (HSH2D; dose-response): No Hit; KD (SHB; dose-response): No Hit; Kd (SHIP1; dose-response, read-out: KD): 4400 ± 420 nM; Kd (PLCG2(SH2dom.N-term.); dose-response, read-out: KD): 550 ± 14 nM"
CC(C)(C)[C@H](NC(=O)/C=C/c1ccc(OP(=O)(O)O)cc1)C(=O)N1CCC[C@H]1C(=O)N(c1ccccc1)c1ccc(I)cc1 [STAT6-IN-3],53.7±3.2,–,–,–,–,–,–,19.6 ± 29.7,53.4 ± 23.5,95.9 ± 35.6,67.6 ± 32.1,78.1 ± 4.8,51.6 ± 17.6,"Kd (HSH2D; dose-response, read-out: KD): 7600 ± 1600 nM"
O=C(COc1ccc2cc(C(=O)Nc3ccccc3)ccc2c1)NCc1ccc(OP(=O)(O)O)c(OP(=O)(O)O)c1 [Stafib-1],61.1±7.3,–,–,–,–,–,–,27.1,114,156,106,92.7 ± 14.3,72.6 ± 27.2,KD (HSH2D; dose-response): No Hit
